Like-named read-outs stand apart in the source and are kept apart here.
Columns and labels:
[1] = system: Key Broadleaf Weed and Crop Species; assay: Post-Emergent Test II: postemergent herbicidal activity, visual rating after 14 d (Table 7); assay type: in vivo; details: post-emergence, 336 h; for pest or weed control at 35 g/ha: 35 g ai/ha; for pest or weed control at 70 g/ha: 70 g ai/ha; for pest or weed control at 140 g/ha: 140 g ai/ha; for pest or weed control at 280 g/ha: 280 g ai/ha
How it was run: (§1)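 Plants were raised in a greenhouse for 7-21 d and treated once at the first or second true leaf stage. Compounds, dissolved in 97:3 acetone:DMSO then diluted into an aqueous acetone/isopropanol/crop oil/Triton X-155 carrier, were applied by overhead track sprayer at 187 L/ha. After 14 d with subirrigation, injury was scored visually from 0 (none) to 100 (complete kill).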

[2] = system: Key Grass and Sedge Weeds as well as Grass Crops; assay: Post-Emergent Test II: postemergent herbicidal activity, visual rating after 14 d (Table 8); assay type: in vivo; details: post-emergence, 336 h; for pest or weed control at 35 g/ha: 35 g ai/ha; for pest or weed control at 70 g/ha: 70 g ai/ha; for pest or weed control at 140 g/ha: 140 g ai/ha; for pest or weed control at 280 g/ha: 280 g ai/ha
How it was run: as §1

[3] = lambsquarters (Chenopodium album), read-out: Visual Growth Reduction (%) 14 Days After Application CHEAL
[4] = oilseed rape, canola (Brassica napus), read-out: Visual Growth Reduction (%) 14 Days After Application BRSNN
[5] = redroot pigweed (Amaranthus retroflexus), read-out: Visual Growth Reduction (%) 14 Days After Application AMARE
[6] = sunflower (Helianthus annuus), read-out: Visual Growth Reduction (%) 14 Days After Application HELAN
[7] = velvetleaf (Abutilon theophrasti), read-out: Visual Growth Reduction (%) 14 Days After Application ABUTH
[8] = wild poinsettia (Euphorbia heterophylla), read-out: Visual Growth Reduction (%) 14 Days After Application EPHHL
[9] = barnyardgrass (Echinochloa crus-galli), read-out: Visual Growth Reduction (%) 14 Days After Application ECHCG
[10] = giant foxtail (Setaria faberi), read-out: Visual Growth Reduction (%) 14 Days After Application SETFA
[11] = maize, corn (Zea mays), read-out: Visual Growth Reduction (%) 14 Days After Application ZEAMX
[12] = rice (Oryza sativa), read-out: Visual Growth Reduction (%) 14 Days After Application ORYSA
[13] = wheat, spring (Triticum aestivum), read-out: Visual Growth Reduction (%) 14 Days After Application TRZAS
[14] = yellow nutsedge (Cyperus esculentus), read-out: Visual Growth Reduction (%) 14 Days After Application CYPES

Work on `Nc1nc(-c2cc3c(cc2F)OC(F)(F)O3)nc(C(=O)O)c1Cl` [Compound 57] yielded a pest or weed control at 35 g/ha [1, 3] of 0 to 29%, a pest or weed control at 70 g/ha [1, 3] of 0 to 29% and a pest or weed control at 140 g/ha [1, 3] of 0 to 29%. For the same molecule, the pest or weed control at 35 g/ha [1, 4] was 0 to 29%, the pest or weed control at 70 g/ha [1, 4] was 0 to 29% and the pest or weed control at 140 g/ha [1, 4] was 0 to 29%. For the same molecule, the pest or weed control at 35 g/ha [1, 5] was 0 to 29%, the pest or weed control at 70 g/ha [1, 5] was 0 to 29% and the pest or weed control at 140 g/ha [1, 5] was 85 to 94%. For the same molecule, the pest or weed control at 35 g/ha [1, 6] was 45 to 59%, the pest or weed control at 70 g/ha [1, 6] was 85 to 94% and the pest or weed control at 140 g/ha [1, 6] was 95 to 100%. For the same molecule, the pest or weed control at 35 g/ha [1, 7] was 0 to 29%, the pest or weed control at 70 g/ha [1, 7] was 0 to 29% and the pest or weed control at 140 g/ha [1, 7] was 0 to 29%. It also gave a pest or weed control at 35 g/ha [1, 8] of 0 to 29%, a pest or weed control at 70 g/ha [1, 8] of 60 to 74% and a pest or weed control at 140 g/ha [1, 8] of 95 to 100%. The pest or weed control at 35 g/ha [2, 9] was 85 to 94%, the pest or weed control at 70 g/ha [2, 9] was 95 to 100% and the pest or weed control at 140 g/ha [2, 9] was 95 to 100%. It also gave a pest or weed control at 35 g/ha [2, 10] of 45 to 59%, a pest or weed control at 70 g/ha [2, 10] of 0 to 29% and a pest or weed control at 140 g/ha [2, 10] of 45 to 59%. The pest or weed control at 35 g/ha [2, 11] was 0 to 29%, the pest or weed control at 70 g/ha [2, 11] was 30 to 44% and the pest or weed control at 140 g/ha [2, 11] was 45 to 59%. The pest or weed control at 35 g/ha [2, 12] was 0 to 29%, the pest or weed control at 70 g/ha [2, 12] was 0 to 29% and the pest or weed control at 140 g/ha [2, 12] was 0 to 29%. The pest or weed control at 35 g/ha [2, 13] was 0 to 29%, the pest or weed control at 70 g/ha [2, 13] was 0 to 29% and the pest or weed control at 140 g/ha [2, 13] was 30 to 44%. For the same molecule, the pest or weed control at 35 g/ha [2, 14] was 0 to 29%, the pest or weed control at 70 g/ha [2, 14] was 0 to 29% and the pest or weed control at 140 g/ha [2, 14] was 0 to 29%.

Work on `Nc1c(F)c(-c2cccc3c2OCO3)nc(C(=O)O)c1Cl` [Compound 72, 4-Amino-6-(benzo[d][1,3]dioxol-4-yl)-3-chloro-5-fluoropicolinic acid] yielded a pest or weed control at 35 g/ha [1, 3] of 95 to 100%, a pest or weed control at 70 g/ha [1, 3] of 95 to 100% and a pest or weed control at 140 g/ha [1, 3] of 95 to 100%. The pest or weed control at 280 g/ha [1, 3] was 95 to 100%, the pest or weed control at 35 g/ha [1, 4] was 75 to 84% and the pest or weed control at 70 g/ha [1, 4] was 95 to 100%. For the same molecule, the pest or weed control at 140 g/ha [1, 4] was 95 to 100%, the pest or weed control at 280 g/ha [1, 4] was 95 to 100% and the pest or weed control at 35 g/ha [1, 5] was 95 to 100%. It also gave a pest or weed control at 70 g/ha [1, 5] of 95 to 100%, a pest or weed control at 140 g/ha [1, 5] of 95 to 100% and a pest or weed control at 280 g/ha [1, 5] of 95 to 100%. For the same molecule, the pest or weed control at 35 g/ha [1, 6] was 95 to 100%, the pest or weed control at 70 g/ha [1, 6] was 95 to 100% and the pest or weed control at 140 g/ha [1, 6] was 95 to 100%. It also gave a pest or weed control at 280 g/ha [1, 6] of 95 to 100%, a pest or weed control at 35 g/ha [1, 7] of 75 to 84% and a pest or weed control at 70 g/ha [1, 7] of 95 to 100%. The pest or weed control at 140 g/ha [1, 7] was 95 to 100%, the pest or weed control at 280 g/ha [1, 7] was 95 to 100% and the pest or weed control at 35 g/ha [1, 8] was 0 to 29%. It also gave a pest or weed control at 70 g/ha [1, 8] of 0 to 29%, a pest or weed control at 140 g/ha [1, 8] of 0 to 29% and a pest or weed control at 280 g/ha [1, 8] of 0 to 29%. It also gave a pest or weed control at 35 g/ha [2, 9] of 0 to 29%, a pest or weed control at 70 g/ha [2, 9] of 0 to 29% and a pest or weed control at 140 g/ha [2, 9] of 0 to 29%. It also gave a pest or weed control at 280 g/ha [2, 9] of 0 to 29%, a pest or weed control at 35 g/ha [2, 10] of 0 to 29% and a pest or weed control at 70 g/ha [2, 10] of 0 to 29%. The pest or weed control at 140 g/ha [2, 10] was 0 to 29%, the pest or weed control at 280 g/ha [2, 10] was 0 to 29% and the pest or weed control at 35 g/ha [2, 11] was 0 to 29%. The pest or weed control at 70 g/ha [2, 11] was 0 to 29%, the pest or weed control at 140 g/ha [2, 11] was 0 to 29% and the pest or weed control at 280 g/ha [2, 11] was 0 to 29%. The pest or weed control at 35 g/ha [2, 12] was 0 to 29%, the pest or weed control at 70 g/ha [2, 12] was 0 to 29% and the pest or weed control at 140 g/ha [2, 12] was 0 to 29%. It also gave a pest or weed control at 280 g/ha [2, 12] of 0 to 29%, a pest or weed control at 35 g/ha [2, 13] of 0 to 29% and a pest or weed control at 70 g/ha [2, 13] of 0 to 29%. For the same molecule, the pest or weed control at 140 g/ha [2, 13] was 0 to 29%, the pest or weed control at 280 g/ha [2, 13] was 0 to 29% and the pest or weed control at 35 g/ha [2, 14] was 0 to 29%. The pest or weed control at 70 g/ha [2, 14] was 0 to 29%, the pest or weed control at 140 g/ha [2, 14] was 0 to 29% and the pest or weed control at 280 g/ha [2, 14] was 0 to 29%.
